# Source: publication PMC5745756, “N,N-disubstituted azines attenuate LPS-mediated neuroinflammation in microglia and neuronal apoptosis via inhibiting MAPK signaling pathways” (BMC Neuroscience, 2017)
# Key:
# Format in all cases: cell-based, murine
# BV2 cells = assay: β-amyloid induced BV2 cell cytotoxicity
# Source text: (§1) Here, we have investigated whether the compound 3 has any direct protective effects on microglia and neurons against LPS and TNF-α induced direct toxicity. As the aim of this study is to check the effectiveness of compound 3 against neurodegenerative conditions, here we checked the effect of this compound to protect microglial cells against β-amyloid induced cytotoxicity as shown in Fig. 5a. […] LPS treatment was unable to induce cellular toxicity to N2a cells (Fig. 5b). […] Compound 3 mediated neuroprotection in N2a cells is due to the inhibition of proinflammatory cytokines produced by LPS activated microglia.
# Fig. 5 Cytoprotection of compound 3 in β-amyloid induced BV2 cell and LPS and TNF-α induced N2a cell toxicity
# p38 = assay: Western blot of LPS-induced p38 phosphorylation in BV-2 cells; details: 5–20 µM; LPS 30 min, similar pattern at 24 h
# Method: BV-2 cells were seeded in a 6-well plate at a density of 6 × 10^5 cells/well and exposed to LPS (100 ng/mL) in the presence or absence of compound 3 for required time. After treatment, cells were collected and lysed in cell lysis buffer (50 mM Tris–HCl, pH 8.0, 0.1% SDS, 150 mM NaCl, 1% NP-40, 0.02% sodium azide, 0.5% sodium deoxycholate, 100 µg/mL PMSF, and […]) for 24 h at 4 °C. The protein content was measured using a Bradford assay. Equal amounts of protein (30 µg) were separated using SDS-PAGE and transferred to a nitrocellulose membrane. The membrane was blocked for 1 h with 5% skim milk in tris-buffered saline with Tween-20 (TBST) and then incubated for 12 h with primary antibodies against α-tubulin (Sigma-Aldrich Cat. no: T5168), iNOS (Bioscience Cat. no: 610333, COX-2 (Santa Cruz Cat. no: sc-1745), ERK (Cell Signaling Cat. no: 9107s), pERK (Cell Signaling Cat. no: 5013s), JNK (Cell Signaling Cat. no: 9252s), pJNK (Cell Signaling Cat. no: 4671s), p38 (Cell Signaling Cat. no: 8690s), and pP38 (Cell Signaling Cat. no: 9211s), followed by incubation for 1 h with horseradish peroxidase-conjugated secondary antibodies (Cell Signaling) at 15 °C. […]
# Fig. 3 Effect of compound 3 on MAPK pathway in LPS-induced BV-2 cells. […] The phosphorylation of p38, JNK, and ERK was measured by western blotting (a–c). […]
# N2a cells [1] = assay: Annexin V/PI staining (FACS) of N2a cells given conditioned media from BV-2 cells; details: CM of compound at each concentration tested (5, 10, 20 µM)
# Method: An annexin V/PI apoptosis kit was used in accordance with the manufacturer’s instructions to quantify the percentage of cells undergoing apoptosis. First, BV-2 cells were incubated for 24 h with 5, 10, and 20 µM of compound 3 or LPS (100 ng/mL). Then, N2a cells were treated with the supernatant of the treated BV-2 cells and incubated. After 24 h, the cells were collected, washed twice with cold PBS, and re-suspended in binding buffer at a concentration of […]. Annexin V-FITC (5 µL) and PI (10 µL) were added, and the cells were incubated for 15 min at room temperature in the dark. Following incubation, 200 µL of binding buffer was added, and the cells were immediately analyzed by flow cytometry (FACSAriaIII; BD Biosciences, Franklin Lakes, NJ, USA). The flow cytometric analysis was performed using the Cell Quest software (BD Biosciences). The annexin V+/PI− cells and annexin V−/PI+ cells were used to identify apoptotic cells and necrotic cells, respectively. The procedure was repeated three times for each sample.
# Fig. 4 Neuroprotection of compound 3 in LPS-activated microglia in N2a cells. […] An annexin V/PI apoptosis kit was used to quantify the percentage of cells undergoing apoptosis and necrosis (x-axis, annexin V; y-axis, PI) by using FACS analysis. […]
# N2a cells [2] = assay: TNF-α induced N2a cytotoxicity, direct treatment
# Method: (§2) N2a cells were used as a representative neuronal cell line for the examination of apoptotic neuron viability using direct treatment of compound 3 with TNF-α activation as well as conditioned media (CM) from LPS-stimulated BV-2 cells treated with compound 3 [28]. This assay was performed following the methods described in our previous study, with slight modifications. To measure neuron viability, BV-2 cells were first seeded and treated with 100 ng/mL LPS in the presence or absence of compound 3. After 24 h, the CM was collected and transferred to N2a cells for a further 24 h. The cell viability of N2a cells was measured using the MTT assay. Well differentiated neuronal cells were used for the experimental purpose as shown in Additional file 1: Fig. S1.
# as §1, with “microglia. […]” for “microglia.”
# N2a cells [3] = assay: Neuronal cell viability (MTT) of N2a cells given conditioned media from LPS-stimulated BV-2 cells; details: Mus musculus, MTT after 24 h, read-out: N2a cell viability, % of the only LPS treated control value
# Method: as §2
# Fig. 4 Neuroprotection of compound 3 in LPS-activated microglia in N2a cells. BV-2 microglial cells were pretreated with 5, 10, and 20 µM compound 3 for 30 min and stimulated with 100 ng/mL of LPS for 24 h. After 24 h of LPS treatment, the conditioned media (CM) were collected and transferred to N2a cells. After 24 h, MTT assay was done in the same CM treated N2a cells (a) and FACS analysis (b–h). An annexin V/PI apoptosis kit was used to quantify the percentage of cells undergoing apoptosis and necrosis (x-axis, annexin V; y-axis, PI) by using FACS analysis. CM-LPS treatment alone induced apoptosis and necrosis in N2a cells (g, h). […]
smiles,measurement,setting,value
"COc1cc(/C=C/C=N/N=C/C=C/c2ccc(O)c(OC)c2)ccc1O [Compound 3, 4,4′-(1E,1′E,3E,3′E)-3,3′-(hydrazine-1,2-diylidene)bis(prop-1-ene-1-yl-3-ylidene)bis(2-methoxyphenol)]",Microglial cell death against β-amyloid,BV2 cells,significantly prevented
same,LPS-induced phosphorylation of p38,p38,significantly inhibited
same,Concentration of apoptotic and necrotic N2a cells,N2a cells [1],decrease
same,Cell viability of N2a cells against TNF-α mediated toxicity,N2a cells [2],increased cell viability
same,viability at 10 µM,N2a cells [3]; CM of BV-2 cells treated with 10 µM compound + LPS,199%
same,viability at 20 µM,N2a cells [3]; CM of BV-2 cells treated with 20 µM compound + LPS,398%
